{
  "source": "paper PMC7247319",
  "about": "“The mitochondria-targeted peptide SS-31 binds lipid bilayers and modulates surface electrostatics as a key component of its mechanism of action” (The Journal of Biological Chemistry, 2020)",
  "test_system": "LUVs with POPC only",
  "assay": "SS-31 binding isotherms by endogenous 2′,6′-Dmt fluorescence",
  "conditions": "even at the highest lipid concentrations used",
  "source_text": "The interaction of basic amphipathic peptides with negatively charged membranes depends on the electric field originating from the bilayer surface as well as specific electrostatic and hydrophobic interactions between the peptide and lipids (Fig. S2). The first objective of this study was to quantitatively evaluate the binding of SS-31 to model membranes with specific lipid composition. For spectroscopic analysis of SS-31 binding, we made use of the endogenous spectral properties of the 2′,6′-dimethyltyrosine (2′,6′-Dmt) side chain at the second position in the peptide. Our initial spectral characterization of SS-31 confirmed the feasibility of using endogenous peptide fluorescence to quantify peptide-membrane interactions (supporting Results A and B and Figs. S3 and S4). We therefore proceeded to measure the binding of SS-31 to large unilamellar vesicles (LUVs) containing anionic lipids in a host background of the zwitterionic lipid 1-palmitoyl-2-oleoyl-sn-glycero-3-phosphocholine (POPC, 16:0/18:1 PC). […]\nFigure 2. […] A–C, fluorescence-based measurements. […] Statistical differences within each data set were determined relative to TOCL-containing membranes: •, p < 0.05; ••, p < 0.01. […]",
  "note": "Where a SMILES comes first, the peptide text is derived from it. [ ]: non-standard residue; d: D form. Dmt = Cc1cc(O)cc(C)c1C[C@H](N)C(=O)O",
  "data": [
    {"molecule": "Cc1cc(O)cc(C)c1C[C@H](NC(=O)[C@H](N)CCCNC(=N)N)C(=O)N[C@@H](CCCCN)C(=O)N[C@@H](Cc1ccccc1)C(N)=O", "note": "[SS-31, D-Arg-2′6′-dimethyl-Tyr-Lys-Phe-NH2] (H-[dR][Dmt]KF-NH2)", "values": [
      {"measurement": "binding in the absence of anionic lipid", "value": "negligible"}
    ]}
  ]
}
